Assay results: article PMC10892423 (Pharmaceutics, 2024)
Blank lines part the entries; values can stand above or below the compound they belong to.

Experiments:
[1] = tested on: MBL-producing P. aeruginosa clinical isolates; test: MIC by broth microdilution (CLSI); format: cell-based, Pseudomonas aeruginosa; conditions: Pseudomonas aeruginosa
Procedure: The DMSO stock solutions of the test compounds were serially diluted to the desired concentrations in CAMHB. Then, 10 μL of the bacterial suspension (5 × 10^5 colony forming units (CFU)/mL) was combined with 200 μL of DMSO stock solutions of the test compounds in 96-well microtiter plates (1% DMSO, final). After the incubation of the plate at 37 °C for 24 h, bacterial growth was visibly evaluated by monitoring the turbidity of the resulting suspension, and the MICs were determined as the lowest concentrations of the test compounds that inhibited the visible growth of the bacteria.

AmpC = target: T1, AmpC (Escherichia coli, UniProt P00811); test: β-lactamase inhibition, nitrocefin hydrolysis; format: biochemical
T1 construct: made in house
T1 sequence (P00811 20-377): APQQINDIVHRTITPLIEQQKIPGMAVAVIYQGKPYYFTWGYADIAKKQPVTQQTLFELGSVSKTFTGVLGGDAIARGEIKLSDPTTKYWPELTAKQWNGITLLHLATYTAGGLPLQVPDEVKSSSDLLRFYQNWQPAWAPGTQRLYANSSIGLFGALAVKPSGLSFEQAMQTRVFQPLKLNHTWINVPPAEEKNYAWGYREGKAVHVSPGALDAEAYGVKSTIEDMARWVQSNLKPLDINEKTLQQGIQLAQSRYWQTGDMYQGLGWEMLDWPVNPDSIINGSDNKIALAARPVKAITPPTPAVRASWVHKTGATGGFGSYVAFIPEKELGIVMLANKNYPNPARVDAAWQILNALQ
From the text: (§1) Recombinant AmpC from Escherichia coli was produced according to a previously reported protocol. KPC-2 and NDM-1 […] were purchased from LifeSpan Biosciences, Inc. (Lynnwood, WA, USA) (LS-G26598) and RayBiotech, Inc. (Peachtree Corners, GA, USA) (230-00554), respectively. Genes encoding OXA-48 (residues 23–265) and VIM-2 (residues 27–266) were custom-synthesized (Bioneer Inc., Seoul, Republic of Korea) and expressed as previously described. The β-lactamase inhibitory activity of the title compounds was then determined according to the previously reported methods. Briefly, equal volumes (100 μL) of the title compounds (70–0.1 μM in PBS) and diluted enzyme stock were mixed (final concentration 2% of DMSO in 200 μL) in 96-well plates, which were then incubated at 37 °C for 20 min. The incubated mixture was added to each well containing substrates (nitrocefin for AmpC, KPC-2, OXA-48, and VIM-2; and imipenem for NDM-1) of final concentrations of 70 μM for nitrocefin and 100 μM for imipenem. Substrate hydrolysis was monitored at 486 nm (nitrocefin) or 300 nm (imipenem) for 15 min, using a Cytation 5 imaging multimode reader (BioTek Instruments Inc., Winooski, VT, USA). At the plateau level of hydrolysis, the corresponding rates of hydrolysis were compared to those obtained without inhibitors (100%) to determine the percentage of enzyme inhibition at each concentration of the title compounds. The IC50 values of the compounds were derived from sigmoidal dose–response curves, using GraphPad Prism 5 (GraphPad Software, Boston, MA, USA).

KPC-2 = target: T2, KPC-2 (Klebsiella pneumoniae, UniProt Q9F663); test: β-lactamase inhibition, nitrocefin hydrolysis; format: biochemical; conditions: nitrocefin substrate; read-out: β-Lactamases, IC50 KPC-2
T2 construct: purchased LifeSpan Biosciences, Inc. LS-G26598
T2 sequence (Q9F663 25-293, looked up): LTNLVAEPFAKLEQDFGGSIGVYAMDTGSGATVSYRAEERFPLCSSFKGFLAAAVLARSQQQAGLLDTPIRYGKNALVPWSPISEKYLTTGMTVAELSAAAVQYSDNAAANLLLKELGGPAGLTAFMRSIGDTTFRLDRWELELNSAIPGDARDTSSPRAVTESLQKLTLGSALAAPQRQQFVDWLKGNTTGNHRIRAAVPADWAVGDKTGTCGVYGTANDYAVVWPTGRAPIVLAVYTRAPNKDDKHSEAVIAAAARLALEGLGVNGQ
From the text: as §1

OXA-48 = target: T3, OXA-48 (Klebsiella pneumoniae, UniProt Q6XEC0); test: β-lactamase inhibition, nitrocefin hydrolysis; format: biochemical; conditions: nitrocefin substrate; read-out: β-Lactamases, IC50 OXA-48
T3 construct: Genes encoding OXA-48 (residues 23–265) and VIM-2 (residues 27–266) were custom-synthesized; made in house
T3 sequence (Q6XEC0 23-265 limits assumed): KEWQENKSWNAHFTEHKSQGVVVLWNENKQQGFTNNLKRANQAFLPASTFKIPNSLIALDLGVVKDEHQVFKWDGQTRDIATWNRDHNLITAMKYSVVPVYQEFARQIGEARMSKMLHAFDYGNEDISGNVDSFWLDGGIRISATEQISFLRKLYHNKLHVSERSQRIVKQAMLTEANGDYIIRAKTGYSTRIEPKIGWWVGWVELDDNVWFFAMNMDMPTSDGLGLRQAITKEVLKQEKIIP
From the text: as §1

VIM-2 = target: T4, VIM-2 (Escherichia coli, UniProt Q5U7L7); test: β-lactamase inhibition, nitrocefin hydrolysis; format: biochemical; conditions: nitrocefin substrate; read-out: β-Lactamases, IC50 VIM-2
T4 construct: Genes encoding OXA-48 (residues 23–265) and VIM-2 (residues 27–266) were custom-synthesized; made in house
From the text: as §1

NDM-1 = target: T5, NDM-1 (Klebsiella pneumoniae, UniProt C7C422); test: β-lactamase inhibition, imipenem hydrolysis; format: biochemical; conditions: imipenem substrate; read-out: β-Lactamases, IC50 NDM-1
T5 construct: purchased RayBiotech, Inc. 230-00554
T5 sequence (C7C422 29-270, looked up, species assumed): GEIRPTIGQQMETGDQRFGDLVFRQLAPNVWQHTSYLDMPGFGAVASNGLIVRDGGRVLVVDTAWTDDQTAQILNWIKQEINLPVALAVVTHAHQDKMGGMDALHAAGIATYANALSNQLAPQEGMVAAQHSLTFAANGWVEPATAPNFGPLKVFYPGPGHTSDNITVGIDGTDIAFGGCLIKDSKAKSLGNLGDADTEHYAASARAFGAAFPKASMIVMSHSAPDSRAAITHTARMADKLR
From the text: as §1

MIC ([1]; PA-001, blaNDM): > 32 µg/mL | MIC ([1]; PA-002, blaIMP): > 32 µg/mL | MIC ([1]; PA-007, blaNDM): > 32 µg/mL | MIC ([1]; PA-008, blaNDM): > 32 µg/mL | MIC ([1]; PA-011, blaNDM): > 32 µg/mL | MIC ([1]; PA-012, blaNDM): ≤ 4 µg/mL | MIC ([1]; PA-016, blaIMP): > 32 µg/mL | MIC ([1]; PA-017, blaNDM): > 32 µg/mL | MIC ([1]; PA-019, blaNDM): > 32 µg/mL | MIC ([1]; PA-020, blaNDM): > 32 µg/mL | MIC ([1]; PA-023, blaNDM): > 32 µg/mL | MIC ([1]; PA-025, blaNDM): > 32 µg/mL | MIC ([1]; PA-027, blaIMP): > 32 µg/mL | MIC ([1]; PA-028, blaNDM): > 32 µg/mL | MIC ([1]; PA-029, blaIMP): > 32 µg/mL | MIC ([1]; PA-030, blaIMP): > 32 µg/mL | MIC ([1]; PA-034, blaNDM): > 32 µg/mL | MIC ([1]; PA-036, blaNDM): > 32 µg/mL | MIC ([1]; PA-038, blaNDM): > 32 µg/mL | MIC ([1]; PA-039, blaNDM): ≤ 4 µg/mL | MIC ([1]; PA-044, blaNDM): > 32 µg/mL
Compound: NCC[C@H](O)C(=O)N[C@@H]1C[C@H](N)[C@@H](O[C@H]2O[C@H](CN)[C@@H](O)[C@H](O)[C@H]2O)[C@H](O)[C@H]1O[C@H]1O[C@H](CO)[C@@H](O)[C@H](N)[C@H]1O [AMK, amikacin]

MIC ([1]; PA-001, blaNDM): > 16 µg/mL | MIC ([1]; PA-002, blaIMP): > 16 µg/mL | MIC ([1]; PA-007, blaNDM): > 16 µg/mL | MIC ([1]; PA-008, blaNDM): > 16 µg/mL | MIC ([1]; PA-011, blaNDM): > 16 µg/mL | MIC ([1]; PA-012, blaNDM): > 16 µg/mL | MIC ([1]; PA-016, blaIMP): > 16 µg/mL | MIC ([1]; PA-017, blaNDM): > 16 µg/mL | MIC ([1]; PA-019, blaNDM): > 16 µg/mL | MIC ([1]; PA-020, blaNDM): > 16 µg/mL | MIC ([1]; PA-023, blaNDM): > 16 µg/mL | MIC ([1]; PA-025, blaNDM): > 16 µg/mL | MIC ([1]; PA-027, blaIMP): > 16 µg/mL | MIC ([1]; PA-028, blaNDM): > 16 µg/mL | MIC ([1]; PA-029, blaIMP): > 16 µg/mL | MIC ([1]; PA-030, blaIMP): > 16 µg/mL | MIC ([1]; PA-034, blaNDM): > 16 µg/mL | MIC ([1]; PA-036, blaNDM): > 16 µg/mL | MIC ([1]; PA-038, blaNDM): > 16 µg/mL | MIC ([1]; PA-039, blaNDM): > 16 µg/mL | MIC ([1]; PA-044, blaNDM): > 16 µg/mL
Compound: CC(C)(O/N=C(\C(=O)N[C@@H]1C(=O)N2C(C(=O)[O-])=C(C[n+]3ccccc3)CS[C@H]12)c1csc(N)n1)C(=O)O [CAZ, ceftazidime]

Compound: CC(C)(C)CC(=O)Oc1c(-c2ccc(F)c(F)c2)oc2cc(O)cc(O)c2c1=O [Compound 3]
IC50 (AmpC): 19.2 µM | IC50 (KPC-2): 22.2 µM | IC50 (OXA-48): 21.2 µM | IC50 (VIM-2): 20.3 µM | IC50 (NDM-1): 24.6 µM

Compound: CC(C)(C)C(=O)OCOc1c(-c2ccc(F)c(F)c2)oc2cc(O)cc(O)c2c1=O [Compound 4]
IC50 (AmpC): 25.4 µM | IC50 (KPC-2): 33.2 µM | IC50 (OXA-48): 28.7 µM | IC50 (VIM-2): 19.3 µM | IC50 (NDM-1): 15.7 µM

Compound: CC(C)OC(=O)OCOc1c(-c2ccc(F)c(F)c2)oc2cc(O)cc(O)c2c1=O [Compound 5]
IC50 (AmpC): > 50 µM | IC50 (KPC-2): > 50 µM | IC50 (OXA-48): 42.7 µM | IC50 (VIM-2): > 100 µM | IC50 (NDM-1): > 50 µM

Compound: CC(C)(C)c1ccc(COc2c(-c3ccc(F)c(F)c3)oc3cc(O)cc(O)c3c2=O)cc1 [Compound 6]
IC50 (AmpC): > 50 µM | IC50 (KPC-2): > 50 µM | IC50 (OXA-48): 37.8 µM | IC50 (VIM-2): > 100 µM | IC50 (NDM-1): 14.1 µM

Compound: CC(C)c1ccc(COc2c(-c3ccc(F)c(F)c3)oc3cc(O)cc(O)c3c2=O)cc1 [Compound 7]
IC50 (AmpC): > 50 µM | IC50 (KPC-2): 21.5 µM | IC50 (OXA-48): 6 µM | IC50 (VIM-2): 13.1 µM | IC50 (NDM-1): 16.7 µM

Compound: O=c1c(OCCO)c(-c2ccc(F)c(F)c2)oc2cc(O)cc(O)c12 [Compound 8]
IC50 (AmpC): > 50 µM | IC50 (KPC-2): > 50 µM | IC50 (OXA-48): > 100 µM | IC50 (VIM-2): > 100 µM | IC50 (NDM-1): > 50 µM

Compound: O=c1c(OCCOCCO)c(-c2ccc(F)c(F)c2)oc2cc(O)cc(O)c12 [Compound 9]
IC50 (AmpC): > 50 µM | IC50 (KPC-2): > 50 µM | IC50 (OXA-48): > 100 µM | IC50 (VIM-2): > 100 µM | IC50 (NDM-1): > 50 µM
